The numbers were not newly measured in paper PMC10817174, “Integrated drug response prediction models pinpoint repurposed drugs with effectiveness against rhabdomyosarcoma” (PLOS ONE, 2024), which cites them from elsewhere.

Series [1] has as its system GDSC-SJCRH30 cell line. The settings on record: Table S2, published drug response ref Iorio et al. (2016); cited from earlier work.
For series [2], the system named is GDSC-RD cell line. The note with it: Table S2, published drug response ref Iorio et al. (2016); cited from earlier work.

Turning to `c1ccc2c(CCNc3ccc(Nc4ccncc4)cc3)c[nH]c2c1` [JNJ-26854165], the Iorio_SJCRH30 result in series [1] was “R”. The Iorio_RD result in series [2] is reported as “R”.
`FC(F)c1nc2ccccc2n1-c1nc(N2CCOCC2)nc(N2CCOCC2)n1` [ZSTK474]: the Iorio_SJCRH30 entry in series [1] was “R”. In addition, in series [2], the Iorio_RD result was “R”.
For `Cn1ncnc1[C@H]1c2n[nH]c(=O)c3cc(F)cc(c23)N[C@@H]1c1ccc(F)cc1` [BMN-673], the Iorio_SJCRH30 result in series [1] is “S”. For the same molecule, the Iorio_RD result in series [2] is on record as “R”.
With `N#CC[C@H](C1CCCC1)n1cc(-c2ncnc3[nH]ccc23)cn1` [Ruxolitinib], the Iorio_SJCRH30 entry in series [1] is reported as “R”. Moreover, the Iorio_RD entry in series [2] is given as “R”.
Consider `Nc1ccn([C@@H]2O[C@H](CO)[C@@H](O)C2(F)F)c(=O)n1` [Gemcitabine], for which the Iorio_SJCRH30 entry in series [1] is recorded as “R”. Also, the Iorio_RD result in series [2] is reported as “R”.
As for `Cc1cc([N+](=O)[O-])ccc1NS(=O)(=O)c1cc(Cl)ccc1Cl` [FH535], the Iorio_SJCRH30 result in series [1] is recorded as “R”. The Iorio_RD entry in series [2] is listed as “R”.
Regarding `O=C(c1ccc(C(=O)N2CCC(N3CCCC3)CC2)c(Nc2ccccc2)c1)N1CCC(N2CCCC2)CC1` [UNC1215], the Iorio_SJCRH30 result in series [1] is recorded as “S”. Besides, in series [2], the Iorio_RD result is given as “R”.
`NCC(=O)Nc1ccc(-n2nc(C(F)(F)F)cc2-c2ccc3c(ccc4ccccc43)c2)cc1` [OSU-03012]: in series [1], the Iorio_SJCRH30 entry is “R”. For the same molecule, the Iorio_RD entry in series [2] was “R”.
As for `CCn1c(-c2nonc2N)nc2c(C#CC(C)(C)O)ncc(OC[C@H]3CCCNC3)c21` [GSK690693], in series [1], the Iorio_SJCRH30 result is “S”. Moreover, the Iorio_RD result in series [2] is “R”.
In the case of `C/C=C(/C)C(=O)O[C@H]1C(C)=C2[C@H]([C@@H]1OC(=O)CCCCCCC)[C@@](C)(OC(C)=O)C[C@H](OC(=O)CCC)[C@@]1(O)[C@H]2OC(=O)[C@@]1(C)O` [Thapsigargin], in series [1], the Iorio_SJCRH30 entry was “R”. Besides, the Iorio_RD entry in series [2] is “R”.
As for `CCN1CCC(n2cc(CNc3cc(Cl)c4ncc(C#N)c(Nc5ccc(F)c(Cl)c5)c4c3)nn2)CC1` [KIN001-266], the Iorio_SJCRH30 entry in series [1] is recorded as “R”. Moreover, the Iorio_RD entry in series [2] was “R”.
On to `CC1(C)CC(=O)c2c(C(F)(F)F)nn(-c3ccc(C(N)=O)c(N[C@H]4CC[C@H](O)CC4)c3)c2C1` [SNX-2112], for which, in series [1], the Iorio_SJCRH30 entry is given as “R”. Besides, the Iorio_RD entry in series [2] is reported as “R”.
On to `C[C@@]1(C(=O)Nc2ccc(F)nc2)CCCN1c1nc(Nc2cc(C3CC3)n[nH]2)c2cccn2n1` [BMS-754807], for which the Iorio_SJCRH30 entry in series [1] is given as “S”. The Iorio_RD entry in series [2] is “S”.
For the molecule `O=C(O)CNC(=O)c1c(O)c2ccccc2n(Cc2ccccc2)c1=O` [IOX2], in series [1], the Iorio_SJCRH30 result is “R”. The Iorio_RD result in series [2] was “R”.
On to `CC(C)(C)OC(=O)Nc1ccc(-c2cc(C(=O)NCCCCCCC(=O)NO)no2)cc1` [CAY10603], for which, in series [1], the Iorio_SJCRH30 result is reported as “R”. For the same molecule, the Iorio_RD result in series [2] is recorded as “R”.
Regarding `O=S(=O)(c1ccccc1)N(CC(F)(F)F)c1ccc(C(O)(C(F)(F)F)C(F)(F)F)cc1` [T0901317], the Iorio_SJCRH30 entry in series [1] was “R”. The Iorio_RD result in series [2] is “R”.
On to `CN(C)Cc1cccc(N/C(=C2\C(=O)Nc3cc(C(=O)N(C)C)ccc32)c2ccccc2)c1` [BIX02189], for which the Iorio_SJCRH30 result in series [1] is given as “R”. For the same molecule, the Iorio_RD entry in series [2] is reported as “R”.
In the case of `CCc1c2c(nc3ccc(O)cc13)-c1cc3c(c(=O)n1C2)COC(=O)[C@]3(O)CC` [SN-38], in series [1], the Iorio_SJCRH30 entry is listed as “R”. For the same molecule, the Iorio_RD result in series [2] is listed as “R”.
For the molecule `CO[C@@H]1[C@H](N(C)C(=O)c2ccccc2)C[C@H]2O[C@]1(C)n1c3ccccc3c3c4c(c5c6ccccc6n2c5c31)C(=O)NC4` [Midostaurin], the Iorio_SJCRH30 entry in series [1] is recorded as “R”. Also, the Iorio_RD result in series [2] is “R”.
Consider `CCCCCCCCCCCC1=C(O)C(=O)C=C(O)C1=O` [Embelin], for which the Iorio_SJCRH30 entry in series [1] is “R”. For the same molecule, the Iorio_RD result in series [2] is reported as “R”.
For the molecule `Cc1ccc(NC(=O)c2ccc(CN3CCN(C)CC3)cc2)cc1Nc1nc(-c2cccnc2)cs1` [Masitinib], the Iorio_SJCRH30 entry in series [1] was “R”. For the same molecule, the Iorio_RD result in series [2] is on record as “R”.
As for `O=C1NC(=O)/C(=C\c2ccc3nccnc3c2)S1` [AS605240], the Iorio_SJCRH30 entry in series [1] is recorded as “R”. Besides, the Iorio_RD entry in series [2] was “R”.
On to `CCc1cncnc1N1CCN(Cc2nc3ccc(C(F)(F)F)cc3[nH]2)CC1` [PF-4708671], for which the Iorio_SJCRH30 result in series [1] was “R”. Further, in series [2], the Iorio_RD entry is on record as “R”.
In the case of `Nc1[nH]nc2nnc(-c3c(-c4ccccc4)nn4ccccc34)cc12` [FR-180204], the Iorio_SJCRH30 entry in series [1] is on record as “R”. The Iorio_RD result in series [2] is given as “R”.
Consider `O=C(Nc1cccc(Nc2ncc(Br)c(NCCc3cnc[nH]3)n2)c1)N1CCCC1` [BX-912], for which, in series [1], the Iorio_SJCRH30 result is “R”. Besides, the Iorio_RD result in series [2] is given as “R”.
Take `C=C(c1ccc(C(=O)O)cc1)c1cc2c(cc1C)C(C)(C)CCC2(C)C` [Bexarotene]: the Iorio_SJCRH30 entry in series [1] is “R”. In series [2], the Iorio_RD result is recorded as “R”.
Take `COc1cc2c(Oc3ccc(NC(=O)C4(C(=O)Nc5ccc(F)cc5)CC4)cc3F)ccnc2cc1OCCCN1CCOCC1` [XL-880]: in series [1], the Iorio_SJCRH30 result is “R”. The Iorio_RD result in series [2] was “R”.
With `COc1ccc(COc2ccc(Cc3cnc(N)nc3N)cc2OC)cc1` [GW-2580], the Iorio_SJCRH30 entry in series [1] is given as “R”. The Iorio_RD result in series [2] is listed as “R”.
Turning to `O=C(/C=C/c1ccc(CN(CCO)CCc2c[nH]c3ccccc23)cc1)NO` [LAQ824], the Iorio_SJCRH30 result in series [1] is on record as “R”. The Iorio_RD result in series [2] is on record as “R”.
Consider `CN(C)C/C=C/C(=O)Nc1ccc(C(=O)Nc2cccc(Nc3ncc(Cl)c(-c4c[nH]c5ccccc45)n3)c2)cc1` [THZ-2-102-1], for which the Iorio_SJCRH30 entry in series [1] was “R”. In series [2], the Iorio_RD entry is on record as “R”.
For `COC(=O)[C@H](CCSC)NC(=O)c1ccc(NC[C@@H](N)CS)cc1-c1ccccc1` [FTI-277], the Iorio_SJCRH30 result in series [1] was “R”. In series [2], the Iorio_RD entry is listed as “R”.
Regarding `Cc1cccc(Nc2nc(-c3ccncc3)cs2)c1` [STF-62247], the Iorio_SJCRH30 result in series [1] was “R”. Moreover, the Iorio_RD result in series [2] is given as “R”.
Consider `NS(=O)(=O)OC[C@@H]1C[C@@H](n2ccc3c(N[C@H]4CCc5ccccc54)ncnc32)C[C@@H]1O` [MLN4924], for which the Iorio_SJCRH30 entry in series [1] was “R”. For the same molecule, the Iorio_RD entry in series [2] was “R”.
As to `Cn1cncc1[C@@](N)(c1ccc(Cl)cc1)c1ccc2c(c1)c(-c1cccc(Cl)c1)cc(=O)n2C` [Tipifarnib], the Iorio_SJCRH30 entry in series [1] is recorded as “R”. Moreover, in series [2], the Iorio_RD entry is “R”.
For `CC(C)[C@H](C(=O)Nc1ccc(C(=O)NO)cc1)c1ccccc1` [AR-42], the Iorio_SJCRH30 result in series [1] is given as “R”. Besides, in series [2], the Iorio_RD result was “R”.
For `Cc1ccc(Nc2nccc(N(C)c3ccc4c(C)n(C)nc4c3)n2)cc1S(N)(=O)=O` [Pazopanib], the Iorio_SJCRH30 result in series [1] is “R”. In series [2], the Iorio_RD result is given as “R”.
Regarding `CC(C)CC(=O)Nc1[nH]nc2c1CN(C(=O)C1CCN(C)CC1)C2(C)C` [PHA-793887], in series [1], the Iorio_SJCRH30 result is “R”. Moreover, the Iorio_RD result in series [2] was “R”.
As for `C/C(O)=C(\C#N)C(=O)Nc1cc(Br)ccc1Br` [LFM-A13], the Iorio_SJCRH30 result in series [1] is recorded as “R”. In addition, the Iorio_RD result in series [2] was “R”.
`Cn1cc(C2=C(c3cn(C4CCN(Cc5ccccn5)CC4)c4ccccc34)C(=O)NC2=O)c2ccccc21` [LY317615]: the Iorio_SJCRH30 entry in series [1] is “R”. In addition, the Iorio_RD entry in series [2] is “R”.
As to `Cn1nnc2c(C(N)=O)ncn2c1=O` [Temozolomide], in series [1], the Iorio_SJCRH30 result is recorded as “R”. In series [2], the Iorio_RD result was “R”.
With `COCCn1c2c([n+](Cc3cnccn3)c1C)C(=O)c1ccccc1C2=O` [YM155], the Iorio_SJCRH30 entry in series [1] was “R”. Also, the Iorio_RD entry in series [2] is reported as “R”.
For the molecule `Cc1ccc(C(=O)Nc2ccc(CN3CCN(C)CC3)c(C(F)(F)F)c2)cc1C#Cc1cnc2cccnn12` [AP-24534], the Iorio_SJCRH30 entry in series [1] is listed as “R”. Also, the Iorio_RD entry in series [2] is listed as “R”.
For `C[C@@H](N)c1ccc(C(=O)Nc2ccnc3[nH]ccc23)cc1` [Y-39983], in series [1], the Iorio_SJCRH30 entry is listed as “R”. Moreover, in series [2], the Iorio_RD result is given as “R”.
For `O=c1[nH]c2ccccc2n1C1CCN(Cc2ccc(-c3nc4cc5[nH]cnc5cc4nc3-c3ccccc3)cc2)CC1` [AKT-inhibitor-VIII], in series [1], the Iorio_SJCRH30 result is reported as “R”. The Iorio_RD entry in series [2] is reported as “R”.
Consider `O=C(/C=C/c1cccnc1)NCCCCC1CCN(C(=O)c2ccccc2)CC1` [FK866], for which the Iorio_SJCRH30 entry in series [1] was “R”. For the same molecule, in series [2], the Iorio_RD result is reported as “R”.
As for `O=c1cc(CN2CCOCC2)occ1OCCCCCSc1ccnc2cc(C(F)(F)F)ccc12` [EHT-1864], the Iorio_SJCRH30 entry in series [1] is recorded as “R”. In addition, the Iorio_RD result in series [2] is “R”.

B1: rTRAIL: GDSC anti-cancer compound (protein, UniProt P50591 1-281, looked up)
Tumor necrosis factor ligand …: MAMMEVQGGPSLGQTCVLIVIFTVLLQSLCVAVTYVYFTNELKQMQDKYSKSGIACFLKEDDSYWDPNDEESMNSPCWQVKWQLRQLVRKMILRTSEETISTVQEKQQNISPLVRERGPQRVAAHITGTRGRSNTLSSPNSKNEKALGRKINSWESSRSGHSFLSNLHLRNGELVIHEKGFYYIYSQTYFRFQEEIKENTKNDKQMVQYIYKYTSYPDPILLMKSARNSCWSKDAEYGLYSIYQGGIFELKENDRIFVSVTNEHLIDMDHEASFFGAFLVG
For the molecule B1, the Iorio_SJCRH30 result in series [1] was “R”. Besides, the Iorio_RD result in series [2] is recorded as “S”.
